Assay results taken from US10035818B2, “Polyethylene glycol based prodrug of adrenomedullin and use thereof” (Bayer Pharma Aktiengesellschaft, priority 2011, dated 2018).
Where no end group is shown, it is not given here. Side-chain parts run from the residue outwards. Dab = NCC[C@H](N)C(=O)O

Tests used:
[1] = system: normotensive Wistar rats; assay: Blood pressure and heart rate in telemetered, normotensive Wistar rats; assay type: in vivo
Description: The cardiovascular effects induced by compounds according to the invention are investigated in freely moving conscious female Wistar rats (body weight>200 g) by radiotelemetric measurement of blood pressure and heart rate. Briefly, the telemetric system (DSI Data Science International, MN, USA) is composed on 3 basic elements: implantable transmitters (TA11PA-C40), receivers (RA1010) and a computer-based acquisition software (Dataquest™ A.R.T. 4.1 for Windows). Rats are instrumented with pressure implants for chronic use at least 14 days prior to the experiments. The sensor catheter is tied with 4-0 suture several times to produce a stopper 0.5 cm from the tip of the catheter. During catheter implantation rats are anesthetized with pentobabital (Nembutal, Sanofi: 50 mg/kg i.p.). After shaving the abdominal skin, a midline abdominal incision is made, and the fluid-filled sensor catheter is inserted upstream into the exposed descending aorta between the iliac bifurcation and the renal arteries. The catheter is tied several times at the stopper. The tip of the telemetric catheter is located just caudal to the renal arteries and secured by tissue adhesive. The transmitter body is affixed to the inner peritoneal wall before closure of abdomen. A two-layer closure of the abdominal incision is used, with individual suturing of the peritoneum and the muscle wall followed by closure of the outer skin. For postsurgical protection against infections and pain a single dosage of an antibiotic (Oxytetracyclin 10% R, 5.0 ml/kg s.c., beta-pharma GmbH&Co, Germany) and analgesic is injected (Rimadyl R, 5.0 ml/kg s.c., Pfizer, Germany). The hardware configuration is equipped for 24 animals. Each rat cage is positioned on top of an individual receiver platform. After activation of the implanted transmitters, an on-line data acquisition system, samples data and converts telemetric pressure signals to mm Hg. A barometric pressure reference allows for relation of absolute pressure (relative to vacuum) to ambient atmospheric pressure. […]

[2] = system: Göttingen minipigs; assay: Acute lung injury in mini pigs induced by intratracheal LPS; assay type: in vivo
Description: (§1) Acute lung injury is induced in anesthetized mini pigs by use of lipopolysaccharide (LPS) or oleic acid as challenges. In detail: female Göttingen minipigs of ca. 3.5 to 5.5 kg body weight (Ellegaard, Denmark) are kept anesthetized by an continuous i.v.-infusion of Ketavet®, Dormicum® and Pancuronium® after premedication with an intramuscular injection of Ketavet®/Stresnil®. After intratracheal intubation animals are artificially ventilated using a pediatric respirator (Sulla 808V; Dräger, Germany) with an oxygen air mixture at a tidal volume of 30 to 50 ml and constant frequency of 25 min^−1. Arterial PaCO2 is adjusted to about 40 mmHg by […]. […] Cellular content of BALF is determined by use of a blood cell counter (Cell DYN 3700). […]

[3] = system: Göttingen minipigs; assay: Acute lung injury in mini pigs induced by oleic acid infusion; assay type: in vivo
Description: as §1

[4] = molecular target: T1, human adrenomedullin-receptor (Homo sapiens, UniProt O60895+Q16602); assay: Recombinant adrenomedullin-receptor reporter cell (CHO, aequorin luminescence); assay type: cell-based; conditions: before incubation; read-out: EC50 T = 0 h
T1 construct: expressed in transfected cells; host or cells: CHO (Chinese hamster ovary) aequorin reporter cell line
Protocol: Activation of the receptor by ligands can be measured by aequorin luminescence. Construction of the cell line and measurement procedure has been described in detail [Wunder F., Rebmann A., Geerts A, and Kalthof B., Mol Pharmacol, 73, 1235-1243 (2008)]. In brief: Cells are seeded on opaque 384-well microtiter plates at a density of 4000 cells/well and are grown for […]. After removal of culture medium, cells are loaded for 3 h with 0.6 μg/ml coelenterazine in Ca^2+-free Tyrode solution (130 mM sodium chloride, 5 mM potassium chloride, 20 mM HEPES (4-(2-hydroxyethyl)-1-piperazineethanesulfonic acid), 1 mM magnesium chloride, and 4.8 mM sodium hydrogen carbonate, pH 7.4) supplemented with 0.2 mM 3-Isobutyl-1-methylxanthine (IBMX) in a cell culture incubator. Compounds are added for 6 min in calcium^2+-free Tyrode solution containing 0.1% bovine serum albumin. Immediately before adding calcium^2+ to a final concentration of 3 mM measurement of the aequorin luminescence is started by use of a suitable luminometer. Luminescence is measured for 60 s.

T1 sequence (Q16602 23-461): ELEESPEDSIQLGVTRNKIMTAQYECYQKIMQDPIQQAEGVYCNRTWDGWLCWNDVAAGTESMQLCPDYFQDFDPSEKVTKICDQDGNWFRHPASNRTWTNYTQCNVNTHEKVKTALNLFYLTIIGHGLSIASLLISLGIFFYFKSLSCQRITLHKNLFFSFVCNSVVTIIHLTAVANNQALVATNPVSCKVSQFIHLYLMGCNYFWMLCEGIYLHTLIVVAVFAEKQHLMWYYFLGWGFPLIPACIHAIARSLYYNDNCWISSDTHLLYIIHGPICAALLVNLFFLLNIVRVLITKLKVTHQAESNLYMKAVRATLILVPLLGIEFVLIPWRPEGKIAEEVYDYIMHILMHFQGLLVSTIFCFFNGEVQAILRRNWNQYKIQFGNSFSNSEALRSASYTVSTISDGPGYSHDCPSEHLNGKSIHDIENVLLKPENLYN
T1 sequence (O60895 43-175): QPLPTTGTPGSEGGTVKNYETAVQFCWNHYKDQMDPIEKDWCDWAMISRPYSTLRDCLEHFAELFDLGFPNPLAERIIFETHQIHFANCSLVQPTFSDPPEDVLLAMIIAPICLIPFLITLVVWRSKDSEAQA

CC[C@H](C)[C@H](NC(=O)[C@H](CCC(N)=O)NC(=O)[C@H](Cc1c[nH]cn1)NC(=O)[C@H](C)NC(=O)[C@H](CC(C)C)NC(=O)[C@H](CCCCN)NC(=O)[C@H](CCC(N)=O)NC(=O)[C@@H](NC(=O)[C@@H](NC(=O)[C@@H]1CSSC[C@H](NC(=O)CNC(=O)[C@H](Cc2ccccc2)NC(=O)[C@H](CO)NC(=O)[C@H](CCCNC(=N)N)NC(=O)[C@H](CC(C)C)NC(=O)CNC(=O)[C@H](CCC(N)=O)NC(=O)[C@H](Cc2ccccc2)NC(=O)[C@H](CC(N)=O)NC(=O)[C@H](CC(N)=O)NC(=O)[C@H](CCSC)NC(=O)[C@H](CO)NC(=O)[C@H](CCC(N)=O)NC(=O)[C@H](CCCNC(=N)N)NC(=O)[C@@H](N)Cc2ccc(O)cc2)C(=O)N[C@@H](CCCNC(=N)N)C(=O)N[C@@H](Cc2ccccc2)C(=O)NCC(=O)N[C@@H]([C@@H](C)O)C(=O)N1)[C@@H](C)O)C(C)C)C(=O)N[C@@H](Cc1ccc(O)cc1)C(=O)N[C@@H](CCC(N)=O)C(=O)N[C@@H](Cc1ccccc1)C(=O)N[C@H](C(=O)N[C@@H](CC(=O)O)C(=O)N[C@@H](CCCCN)C(=O)N[C@@H](CC(=O)O)C(=O)N[C@@H](CCCCN)C(=O)N[C@@H](CC(=O)O)C(=O)N[C@@H](CC(N)=O)C(=O)N[C@H](C(=O)N[C@@H](C)C(=O)N1CCC[C@H]1C(=O)N[C@@H](CCCNC(=N)N)C(=O)N[C@@H](CO)C(=O)N[C@@H](CCCCN)C(=O)N[C@H](C(=O)N[C@@H](CO)C(=O)N1CCC[C@H]1C(=O)N[C@@H](CCC(N)=O)C(=O)NCC(=O)N[C@@H](Cc1ccc(O)cc1)C(N)=O)[C@@H](C)CC)C(C)C)[C@@H](C)O [ADM, adrenomedullin (human)]
duration of blood pressure reduction [1]: ≤ 4 h | time after which MABP had returned to base line levels ([1]; subcutaneous, FIG. 1): about 3.5 hours | mean reduction of MABP at peak ([1]; subcutaneous, one hour after administration, FIG. 1): ~20%

O-{[(3 S)-3-Amino-4-({(2R)-1-amino-3-[(2,5-dioxo-1-{3-oxo-3-[(2-{ω-methoxy-poly-oxyethylen[40 kDa]}ethyl)amino]propyl}pyrrolidin-3-yl)sulfanyl]-1-oxopropan-2-yl}amino)-4-oxobutyl]carbamoyl}-L-tyrosyl-adrenomedullin(2-52) (Y([Dab-Cys‑NH2-succinimide-PEG 40 kDa])RQSMNNFQGLRSFGCRFGTCTVQKLAHQIYQFTDKDKDNVAPRSKISPQGY; cysteine pairing not given here; also: PEG 40 kDa prodrug linker attached by carbamate to Tyr1 phenol O; UniProt P35318 95-146, looked up) [Example 1, PEG 40 kDa based prodrug of adrenomedullin]
doses found to be active ([2]; as referred to the peptide component, LPS protocol): ≤ 30 μg/kg body weight | LPS induced changes (PAP, EVWLI, PaO2/FiO2, cellular content of BALF) ([2]; i.v.-bolus 15 min before the LPS challenge): ameliorated or prevented | oleic acid induced changes (PAP, EVLWI, PaO2/FiO2) ([3]; administration 15 min before start of the OA infusion): ameliorated or prevented | doses found to be active ([3]; as referred to the peptide component, oleic acid protocol): ≤ 30 μg/kg body weight

O-{[(3-N-Methyl-amino-4-({(2R)-1-amino-3-[(2,5-dioxo-1-{3-oxo-3-[(2-{ω-methoxy-poly-oxyethylen[40 kDa]}ethyl)amino]propyl}pyrrolidin-3-yl)sulfanyl]-1-oxopropan-2-yl}amino)-4-oxobutyl]carbamoyl}-L-tyrosyl-adrenomedullin(2-52) [Example 2]
EC50 [4]: > 1000 nM
